# Like-named read-outs stand apart in the source and are kept apart here.
# Tests used:
# [1] = system: T47D xenografts; test: T47D estrogen-sensitive breast cancer xenograft: tumor growth
# Experimental: Experimental Design. Estrogen pellets (0.72 mg/pellet) were implanted 30 days prior to cell implantation and again 60 days later. T47D estrogen-sensitive breast cancer cells (5×10^6 cells/mouse mixed 1:1 with […] ™) were implanted subcutaneously in female athymic nude mice. […] Tamoxifen was included as a positive control.
# Tumor size was measured by calipers at periodic intervals. After 74 days of treatment, the mice were sacrificed.
# [2] = Phase 1 multiple-dose study in healthy volunteers: safety and tolerability; type: in vivo, human
# Description: (§1) Methods. The trial was a Phase 1, randomized, escalating multiple dose, single center study conducted in 2 stages.
# [3] = system: tumor VEGF; test: Tumor VEGF content ELISA in microvessel density study, HT1080 xenografts; type: in vivo, human; details: racemic mixture, 5 mg/kg of Compound #10 oral BID, 10 days
# Experimental: Experimental Design. HT1080 cells (5×10^6 cells/mouse) were implanted subcutaneously in male athymic nude mice.
# At the end of treatment, the mice were sacrificed. Excised tumors were assayed by ELISA for VEGF content as described in Section 9.1.1.1, and were sectioned and immunostained with an anti murine CD31 antibody that is specific for endothelial cells.
# [4] = system: VEGF-A; test: Patients: serum and plasma VEGF-A levels; type: in vivo, human
# Experimental: Subjects with NF2 may receive continuous daily treatment with a Compound administered at 100 mg per dose, 2 times a day (BID) for up to 1 year, or longer as appropriate, or until tumor progression. […] Tumor shrinkage or an improvement in hearing are indicators of efficacy.
# Anti-angiogenic activity: Assessing VEGF concentrations provides a relevant and convenient mechanism-specific marker of Compound activity. […] For example, clinically validated ELISA kits (e.g., from R&D Systems, Minneapolis, Minn.) may be used to measure concentrations of VEGF, VEGF-C, P1GF, VEGFR, and inflammatory mediators such as IL-6 and IL-8. CT scan and MRI scan may also be used to assess peritumoral inflammation or edema.
# Blood for VEGF, VEGFR, and Cytokines. Two blood samples (1 for plasma and 1 for serum) may be obtained for assessment of VEGF, VEGFR, and cytokine levels.
# Each sample for plasma collection may comprise 3 mL of venous blood drawn into a […]® tube with K2EDTA as the anticoagulant. Immediately after collection, the tube may be gently inverted 8 to 10 times to mix the anticoagulant with the blood sample. The tube may be stored upright at room temperature until centrifugation; centrifugation and sample processing may be performed within 30 minutes of sample collection. […]
# [5] = Phase 1 multiple-dose study in healthy volunteers: pharmacokinetics (Table 28); type: in vivo, human; details: for concentration at 24 h / Tmax: human, plasma, oral; for concentration at 24 h: read-out: C24 h
# Experimental: as §1
# Capsules contained 2 mg or 20 mg of active substance.
# Capsules contained 20 mg or 25 mg of active substance.
# Noncompartmental methods were used to compute Tmax, Cmax, and AUC. Dose proportionality and sex effect were evaluated using ANOVA on log transformed PK parameters using dose, sex, and dose by sex as fixed factors.
# [6] = Cardiovascular safety pharmacology in awake telemeterized dogs; type: in vivo, beagle dogs; details: single oral doses of 30, 60, and 120 mg/kg, male dogs
# [7] = system: HT1080 cells; test: Anchorage-independent colony formation in HT1080 cells; type: cell-based, human; details: 10 and 50 nM, day 18; P=0.29 and 0.07
# Experimental: Experimental Design. HT1080 cells growing in monolayer were trypsinized, counted and suspended in a 0.35% agar noble/1× complete DMEM solution at 37° C. at a concentration of 2,500 cells/mL. One ml of this solution was layered over a semisolid base consisting of 0.5 mL of 0.75% agar noble/1× complete DMEM in a six well tissue culture plate. […] Tissue culture plates were then returned to the incubator and colonies were allowed to form. […] On day 18 the vehicle-treated wells had colonies of sufficient size to count (>50 cells/colony). At this time, for increased visualization, 1.5 mL of a 2× working volume of (3-(4,5-Dimethylthiazol-2-yl)-2,5-diphenyltetrazolium bromide, a tetrazole) (MTT, Invitrogen, Cat #C35007) was added and the plates were returned to the incubator for 2 hours until colonies were stained by conversion of the MTT to purple formazan crystals. Colonies were then visually counted under a dissecting microscope.
# [8] = system: soluble VEGF121 and VEGF165 isoforms; test: ELISA of soluble VEGF production in nontransformed keratinocytes during hypoxia or normoxia; type: cell-based, human; details: 72 hours
# Experimental: Experimental Design. Nontransformed normal human keratinocyte cell cultures were established under normoxic conditions (21% oxygen). […] At the completion of treatment, cells were assessed for viability with an ATP assay and conditioned media were evaluated for VEGF protein levels by ELISA (as described in Section 9.1.1.1).
# [9] = Stage 1, 0.3 mg/kg BID, Day 1, mean
# [10] = Stage 1, 0.3 mg/kg BID, Day 7, mean
# [11] = Stage 1, 0.6 mg/kg BID, Day 1, mean
# [12] = Stage 1, 0.6 mg/kg BID, Day 7, mean
# [13] = healthy volunteers, all dose levels
smiles,measurement,setting,value
COc1ccc(C2c3[nH]c4ccc(Cl)cc4c3CCN2C(=O)Oc2ccc(Cl)cc2)cc1 (racemic) [Compound #10],Mean % Inhibition of Tumor Size vs Vehicle at Day 74,[1]; 10 mg/kg oral QD,40%
same,Toxicity on observing the animals,"[1]; T47D xenograft mice, 10 mg/kg QD, 74 days",no evidence of toxicity
same,Grade of treatment emergent adverse events and laboratory abnormalities,"[2]; healthy volunteers, 7 days",generally Grade 1
same,QTc prolongation,"[2]; healthy volunteers, 7 days",no meaningful QTc prolongation
same,Maximum tolerated dose,[2]; through the highest dose level tested ([…] TID),No MTD was established
same,Mean inhibition of tumor VEGF concentration,[3],95%
same,Plasma VEGF-A levels in patients (FIG. 35),[4],reduced
same,Serum VEGF-A levels in patients (FIG. 34),[4],reduced
same,AUC0-24,[5]; [9],4310 ng·h/mL
same,Cmax (after PM dose),[5]; [9],480 ng/mL
same,Dose-normalized AUC0-24,[5]; [9],7.2 µg·h/mL/mg/kg
same,Dose-normalized Cmax,[5]; [9],0.79 µg/mL/mg/kg
same,Tmax (after PM dose),[5]; [9],3.16 h
same,AUC0-24,[5]; [10],8440 ng·h/mL
same,Cmax (after PM dose),[5]; [10],590 ng/mL
same,Dose-normalized AUC0-24,[5]; [10],14.1 µg·h/mL/mg/kg
same,Dose-normalized Cmax,[5]; [10],0.99 µg/mL/mg/kg
same,AUC0-24,[5]; [11],10100 ng·h/mL
same,Cmax (after PM dose),[5]; [11],970 ng/mL
same,Dose-normalized AUC0-24,[5]; [11],8.4 µg·h/mL/mg/kg
same,Dose-normalized Cmax,[5]; [11],0.81 µg/mL/mg/kg
same,Tmax (after PM dose),[5]; [11],3.17 h
same,AUC0-24,[5]; [12],18600 ng·h/mL
same,Cmax (after PM dose),[5]; [12],1160 ng/mL
same,Dose-normalized AUC0-24,[5]; [12],15.5 µg·h/mL/mg/kg
same,Dose-normalized Cmax,[5]; [12],0.97 µg/mL/mg/kg
same,Dose-normalized AUC0-24,"[5]; Stage 1, […] BID, Day 1, mean",7.5 µg·h/mL/mg/kg
same,Dose-normalized Cmax,"[5]; Stage 1, […] BID, Day 1, mean",0.82 µg/mL/mg/kg
same,Cmax (after PM dose),"[5]; Stage 1, […] BID, Day 7, mean",2470 ng/mL
same,Dose-normalized AUC0-24,"[5]; Stage 1, […] BID, Day 7, mean",13.7 µg·h/mL/mg/kg
same,Dose-normalized Cmax,"[5]; Stage 1, […] BID, Day 7, mean",1.03 µg/mL/mg/kg
same,Dose-normalized AUC0-24,"[5]; Stage 2, […] TID, Day 1, mean",7.7 µg·h/mL/mg/kg
same,Dose-normalized Cmax,"[5]; Stage 2, […] TID, Day 1, mean",0.51 µg/mL/mg/kg
same,Tmax (after PM dose),"[5]; Stage 2, […] TID, Day 1, mean",2.50 h
same,Cmax (after PM dose),"[5]; Stage 2, […] TID, Day 7, mean",4650 ng/mL
same,Dose-normalized AUC0-24,"[5]; Stage 2, […] TID, Day 7, mean",16.4 µg·h/mL/mg/kg
same,Dose-normalized Cmax,"[5]; Stage 2, […] TID, Day 7, mean",0.98 µg/mL/mg/kg
same,concentration at 24 h,"[5]; both sexes, 0.3 mg/kg, Stage 1, 0.3 mg/kg BID, Day 1, mean",94 ng/mL
same,concentration at 24 h,"[5]; both sexes, 0.3 mg/kg, Stage 1, 0.3 mg/kg BID, Day 7, mean",210 ng/mL
same,concentration at 24 h,"[5]; both sexes, 0.6 mg/kg, Stage 1, 0.6 mg/kg BID, Day 1, mean",260 ng/mL
same,concentration at 24 h,"[5]; both sexes, 0.6 mg/kg, Stage 1, 0.6 mg/kg BID, Day 7, mean",540 ng/mL
same,Tmax,"[5]; both sexes, healthy volunteers, Stage 1 and Stage 2, read-out: Mean Tmax",~3 h
same,Tmax,"[5]; both, Stage 1, 1.2 mg/kg BID, Day 1, mean, read-out: Tmax (after PM dose)",3 h
same,Oral bioavailability,[5]; healthy volunteers,orally bioavailable
same,Differences in Cmax or AUC0-24 between males and females,"[5]; healthy volunteers, ANOVA",no significant differences
same,Accumulation (Day 1 to Day 7) when dosed continuously,[5]; [13],~2 fold
same,Target trough plasma concentration (~0.1 to […]),[5]; [13],achieved and maintained
same,Lag time until appearance in plasma,"[5]; healthy volunteers, oral capsules",~30 min
same,Changes in cardiovascular or electrocardiographic (including QT interval) parameters,[6],no meaningful changes
same,Number of anchorage-independent colonies formed,[7],modest trend toward a reduced number of colonies
same,Maximal decrease in VEGF concentration in conditioned media,[8]; hypoxic (1% oxygen),57%
same,Mean VEGF concentration in conditioned media at maximal decrease,[8]; hypoxic (1% oxygen),606 pg/mL
same,Decrease in VEGF concentration in conditioned media,[8]; normoxic,21%
same,Mean VEGF concentration in conditioned media in the presence of compound,[8]; normoxic,192 pg/mL

# From US20120157401A1, “METHODS FOR TREATING NEUROFIBROMATOSIS” (PTC Therapeutics, Inc., priority 2009, published 2012)
